Data reported in patent US20150031892A1, “SPHINGOLIPID METABOLITE MIMETICS” (Zhejiang University, priority 2012, published 2015).
Read-outs that look alike come from different tables or passages of the source.

Columns and labels:
Assay type in all cases: cell-based
[1] = system: multiple types of cancer cells; assay: MTT cytotoxicity, statements over several cancer cell lines; conditions: for direct anti-cancer cell activity: summary statement
Procedure: (§1) Cell survival after exposure to the sphingolipid metabolite mimetics was examined by MTT cytotoxicity assay. HepG2, A431, HeLa, MCF-7 and SA cells (7000 cells/well) were seeded in each well of a 96-well plate for 24 h. New medium was added to give final concentrations of 0 to 200 μM of the sphingolipid metabolite mimetics. Then, 50 μl of 1 mg/ml 3-(4,5-dimethylthiazol-2-yl)-2,5-diphenyltetrazolium bromide (MTT, Sigma-Aldrich Chemical) was added to each well for 4 h incubation at 37° C. The purple formazan formed was then solubilized by DMSO and absorbance at 570 nm was read by a microplate reader (Molecular Devices, Sunnyvale, Calif.).

MCF-7 = assay: MTT cytotoxicity assay, MCF-7 (breast cancer); conditions: Homo sapiens, MCF7; Breast Cancer MCF-7, MTT
Procedure: as §1

MCF-7 cells = assay: Drug sensitivity MTT assay with TRAIL, MCF-7; parameters: scale not given here; conditions: for NZJU alone mean value (sensitivity, growth inhibition): drug alone (19-100 μM; TRAIL 100 ng/ml); for NZJU alone mean value (sensitivity, growth inhibition) / combine mean value (sensitivity, growth inhibition): 48 h; for Enhanced mean value: enhancement due to co-administration with TRAIL; for combine mean value (sensitivity, growth inhibition): mimetic at the dose of its row combined with TRAIL 100 ng/ml
Procedure: (§2) Cell survival after exposure to the anti-tumor agents was examined by MTT cytotoxicity assay. Cells were seeded in each well of a 96-well plate for 24 h. After incubation with various concentrations of compounds, TRAIL, or both for 48 h, the medium was discarded. Then, 50 μl of 1 mg/ml 3-(4,5-dimethylthiazol-2-yl)-2,5-diphenyltetrazolium bromide (MTT, Sigma-Aldrich Chemical) was added to each well for 4 h incubation at 37° C. The purple formazan formed was then solubilized by DMSO and absorbance at 570 nm was read by a microplate reader (Molecular Devices, Sunnyvale, Calif.).

SW480 = assay: MTT cytotoxicity assay, SW480 (colon cancer); conditions: Homo sapiens
SW620 cells = assay: Drug sensitivity MTT assay with TRAIL, SW620; parameters: scale not given here; conditions: for NZJU alone mean value (sensitivity, growth inhibition): drug alone (19-100 μM; TRAIL 100 ng/ml); for NZJU alone mean value (sensitivity, growth inhibition) / combine mean value (sensitivity, growth inhibition): 48 h; for Enhanced mean value: enhancement due to co-administration with TRAIL; for combine mean value (sensitivity, growth inhibition): mimetic at the dose of its row combined with TRAIL 100 ng/ml
Procedure: as §2

HELA cells = assay: Drug sensitivity MTT assay with TRAIL, HELA; parameters: scale not given here; conditions: for NZJU alone mean value (sensitivity, growth inhibition): drug alone (19-100 μM; TRAIL 100 ng/ml); for NZJU alone mean value (sensitivity, growth inhibition) / combine mean value (sensitivity, growth inhibition): 48 h; for Enhanced mean value: enhancement due to co-administration with TRAIL; for combine mean value (sensitivity, growth inhibition): mimetic at the dose of its row combined with TRAIL 100 ng/ml
Procedure: as §2

SiHa = assay: MTT cytotoxicity assay, SiHa (ovarian cancer as headed); conditions: Homo sapiens, Cervical Cancer SiHa
HepG2 = assay: MTT cytotoxicity assay, HepG2 (liver cancer); conditions: Homo sapiens
Procedure: as §1

SA = assay: MTT cytotoxicity assay, SA (pancreatic cancer as headed)
Procedure: as §1

SW620 = assay: MTT cytotoxicity assay, SW620 (colon cancer); conditions: Homo sapiens, SW-620
A431 = assay: MTT cytotoxicity assay, A431 (squamous carcinoma); conditions: Homo sapiens, A-431
Procedure: as §1

[2] = system: cancer cells (TRAIL resistance); assay: Sensitization of cancer cells to TRAIL-induced apoptosis, general statements; conditions: summary statement
Procedure: as §2

MES-SA cells = assay: Apoptosis assay, Hoechst 33342 fluorescence staining; conditions: doses of their IC50 for 8 h
Procedure: The cells were then washed with PBS and stained with Hoechst 33342 (from sigma chemical) for 20 min in the dark. Morphologic changes were analyzed under a fluorescence microscope. The experiment was repeated three times.

| SMILES | direct anti-cancer cell activity [1] | IC50 (MCF-7) [µM] | NZJU alone mean value (sensitivity, growth inhibition) (MCF-7 cells) | Enhanced mean value (MCF-7 cells) | combine mean value (sensitivity, growth inhibition) (MCF-7 cells) | IC50 (SW480) [µM] | NZJU alone mean value (sensitivity, growth inhibition) (SW620 cells) | Enhanced mean value (SW620 cells) | combine mean value (sensitivity, growth inhibition) (SW620 cells) | NZJU alone mean value (sensitivity, growth inhibition) (HELA cells) | Enhanced mean value (HELA cells) | combine mean value (sensitivity, growth inhibition) (HELA cells) | IC50 (SiHa) [µM] | IC50 (HepG2) [µM] | IC50 (SA) [µM] | IC50 (SW620) [µM] | IC50 (A431) [µM] | TRAIL sensitization activity [2] | other results |
| --- | --- | --- | --- | --- | --- | --- | --- | --- | --- | --- | --- | --- | --- | --- | --- | --- | --- | --- | --- |
| CCCCCCCCCCCCNC(=O)[C@@H](NC(=O)c1ccco1)[C@@H](C)O [NZJU13, N-((2S,3R)-3-hydroxy-1-oxo-1-(dodecylamino)butan-2-yl)-Furan-2-carboxamide] | direct anti-cancer cell activity | 67.5 ± 4.88 | 0.148 | 0.321 | 0.582 | 125 ± 16.1 | 0.126 | 0.321 | 0.520 | 0.146 | 0.254 | 0.435 | 64.3 ± 1.68 | 147 ± 22.3 | 93.5 ± 3.13 | 87.5 ± 7.58 | 92.4 ± 2.64 | TRAIL sensitization activity |  |
| CCCCCCCCCCCCNC(=O)[C@@H](NC(=O)c1ccccc1)[C@@H](C)O [NZJU16, N-((2S,3R)-3-hydroxy-1-oxo-1-(dodecylamino)butan-2-yl)-benzamide] | direct anti-cancer cell activity | 36.6 ± 8.86 | 0.479 | 0.197 | 0.741 | 67.2 ± 7.42 | 0.376 | 0.304 | 0.607 | 0.264 | 0.298 | 0.597 | 63.9 ± 6.01 | > 400 | 75.5 ± 6.24 | ≥ 200 | 41.2 ± 0.69 | TRAIL sensitization activity |  |
| CCCCCCCCCCCCNC(=O)[C@@H](NC(=O)c1nccc2ccccc12)[C@@H](C)O [NZJU30, N-((2S,3R)-3-hydroxy-1-oxo-1-(dodecylamino)butan-2-yl)-isoquinoline-1-carboxamide] | direct anti-cancer cell activity | 50.5 ± 5.65 | 0.002 | 0.157 | 0.274 | 58.8 | −0.038 | 0.375 | 0.493 | 0.057 | 0.075 | 0.195 | 56.6 ± 4.91 | 65.7 ± 2.63 | 51.93 ± 0.42 | 65.8 ± 4.14 | 62.8 ± 7.56 | TRAIL sensitization activity | NZJU alone mean value (sensitivity, growth inhibition) (SW620 cells; listed as NZJU2f): very little sensitivity |
| CCCCCCCCCCCCCCNC(=O)[C@@H](NC(=O)c1cccs1)[C@@H](C)O [NZJU34, N-((2S,3R)-3-hydroxy-1-oxo-1-(tetradecylamino)butan-2-yl)-2-thiophene carboxamide] | direct anti-cancer cell activity | 36.07 ± 0.27 | 0.444 | 0.263 | 0.759 | 70.3 | 0.315 | 0.275 | 0.664 | 0.334 | 0.375 | 0.744 | 63 ± 0.25 | 88.4 ± 15.5 | 21.2 ± 3.78 | 78.4 ± 11.1 | 26.4 ± 4.03 | TRAIL sensitization activity |  |
| C/C=C/C=C/C(=O)N[C@H](C(=O)NCCCCCCCC)[C@@H](C)O [NZJU41, (2E,4E)-N-((2S,3R)-3-hydroxy-1-oxo-1-(octylamino)butan-2-yl)-2,4-hexadienoic acid amide] | direct anti-cancer cell activity | 149 ± 3.24 | 0.347 | 0.113 | 0.625 | 158 | 0.551 | 0.169 | 0.790 | 0.362 | 0.421 | 0.819 | 123 ± 2.5 | 102 ± 4.07 | 40.4 ± 2.16 | ≥ 200 | 58.24 ± 0.11 | TRAIL sensitization activity |  |
| CCCCCCCCNC(=O)[C@@H](NC(=O)c1cccs1)[C@@H](C)O [NZJU44, N-((2S,3R)-3-hydroxy-1-oxo-1-(octylamino)butan-2-yl)-2-thiophene carboxamide] | direct anti-cancer cell activity | 72.5 ± 3.37 | 0.625 | 0.042 | 0.717 |  | 0.563 | 0.128 | 0.853 | 0.218 | 0.357 | 0.315 | 91.85 ± 0.59 | 149 ± 8.7 | 60.9 ± 4.29 | 136 ± 42.6 | 32.1 ± 4.6 | TRAIL sensitization activity | NZJU alone mean value (sensitivity, growth inhibition) (MCF-7 cells; listed as NZJU1g): efficient at killing MCF-7 cells |
| CCCCCCCCNC(=O)[C@@H](NC(=O)c1cc2ccccc2o1)[C@@H](C)O [NZJU45, N-((2S,3R)-3-hydroxy-1-oxo-1-(octylamino)butan-2-yl)-benzofuran-2-carboxamide] | direct anti-cancer cell activity | 47.2 ± 7.3 | 0.021 | 0.382 | 0.538 |  | 0.205 | 0.309 | 0.516 | 0.173 | 0.223 | 0.432 | 66.5 ± 2.5 | 81.3 ± 9.13 | 40.8 ± 3.63 | ≥ 200 | 52.7 ± 3.82 | TRAIL sensitization activity |  |
| CCCCCCCCCCCCCCNC(=O)[C@@H](NC(=O)c1cc2ccccc2[nH]1)[C@@H](C)O [NZJU48, N-((2S,3R)-3-hydroxy-1-oxo-1-(tetradecylamino)butan-2-yl)-indole-2-carboxamide] | direct anti-cancer cell activity |  |  |  |  | 11.8 ± 1.46 |  |  |  |  |  |  | 14.2 ± 1.8 | 10.5 ± 0.35 | 12.1 ± 2.77 |  | 12.2 ± 1.9 |  | IC50 ([1]; all of the cell lines tested, read-out: IC50 values): < 20 µM; IC50 ([1]; multiple types of cancer cells, read-out: IC50): < 20 µM; apoptotic cell death, fluorescent micrographs (FIG. 30) (MES-SA cells): apoptotic cell death |
| CCCCCCCCCCCCCCNC(=O)[C@@H](NC(=O)c1cc2ccccc2n1C)[C@@H](C)O [NZJU51, N-((2S,3R)-3-hydroxy-1-oxo-1-(tetradecylamino)butan-2-yl)-(N-methyl)indole-2-carboxamide] | direct anti-cancer cell activity |  |  |  |  | 34.2 ± 1.36 |  |  |  |  |  |  | 26.5 ± 2.33 | 34.5 ± 2.34 | 25.7 ± 0.42 |  | 13.7 ± 1.73 |  | apoptotic cell death, fluorescent micrographs (FIG. 30) (MES-SA cells): apoptotic cell death |
